From article PMC9964746, “Mechanism of Action and Structure–Activity Relationships of Tetracyclic Small Molecules Acting as Universal Positive Allosteric Modulators of the Cholecystokinin Receptor” (Membranes, 2023)
“And” between values parts separate entries of the source, which are not always exact repeats. Identical values can stand only once.

Tests used:
Assay type in all cases: cell-based
CCK2R = target: T1, CCK2R (Homo sapiens, UniProt P32239); assay: Intracellular calcium assay (Fura-8-AM) in CHO-CCK2R cells; conditions: compound 10 µM
T1 construct: expressed in transfected cells; host or cells: CHO-K1 (CHO-CCK2R line)
T1 sequence (P32239 1-447): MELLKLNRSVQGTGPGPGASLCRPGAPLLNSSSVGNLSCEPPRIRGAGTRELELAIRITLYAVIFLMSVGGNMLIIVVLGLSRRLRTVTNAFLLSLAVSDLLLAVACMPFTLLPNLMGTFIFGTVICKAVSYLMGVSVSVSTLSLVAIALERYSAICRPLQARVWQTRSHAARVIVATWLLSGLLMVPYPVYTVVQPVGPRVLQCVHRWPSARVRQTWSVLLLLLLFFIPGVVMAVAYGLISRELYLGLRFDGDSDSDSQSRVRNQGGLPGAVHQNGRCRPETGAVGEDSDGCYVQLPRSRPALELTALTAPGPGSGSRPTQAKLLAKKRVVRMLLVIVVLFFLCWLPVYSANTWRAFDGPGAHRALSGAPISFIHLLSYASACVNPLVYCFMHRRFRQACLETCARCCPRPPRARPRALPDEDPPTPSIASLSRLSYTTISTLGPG
Method: Biological activity was quantified in the CHO cell lines described above using intracellular calcium assays that were performed, as previously described, using Fura-8-AM (AAT Bioquest, Pleasonton, CA, USA). Full agonist dose–response curves were performed along with determination of maximal responses to 0.1 mM ATP, targeting an endogenous receptor present on the parental cells. Concentration–response curves of peak intracellular calcium responses were analyzed and plotted as percentages of maximal responses using non-linear regression analysis in Prism 9.1 (GraphPad).

[1] = target: T2, vasopressin-2 receptor (AVP2R) (Homo sapiens, UniProt P30518); assay: AVP2R cAMP HTRF accumulation assay; conditions: for AVP2R PAM (cAMP) Score (activity score = normalized Emax × pEC50): PAM format
T2 construct: expressed in transfected cells; host or cells: CHO-K1 (PAM format); HEK-293 (agonist format)
T2 sequence (P30518 whole entry): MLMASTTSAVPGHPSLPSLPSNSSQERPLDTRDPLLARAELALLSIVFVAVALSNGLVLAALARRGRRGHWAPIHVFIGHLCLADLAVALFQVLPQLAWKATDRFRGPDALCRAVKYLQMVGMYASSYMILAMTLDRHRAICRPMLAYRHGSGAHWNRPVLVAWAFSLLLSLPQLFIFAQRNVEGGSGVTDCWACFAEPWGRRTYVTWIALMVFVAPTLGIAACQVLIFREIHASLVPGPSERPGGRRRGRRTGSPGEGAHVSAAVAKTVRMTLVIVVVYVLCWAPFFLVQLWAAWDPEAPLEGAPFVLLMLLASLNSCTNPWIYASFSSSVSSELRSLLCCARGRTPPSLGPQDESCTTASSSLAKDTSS
Method in brief: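 CHO-K1 AVP2R cells (PAM format) or HEK-293 AVP2R cells (agonist format) incubated 30 min at room temperature with compounds and vasopressin in HBSS with 5 mM HEPES, 0.5 mM IBMX, 0.075% BSA. cAMP read by HTRF after 30 min; 16-point 2-fold dose–response in duplicate.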

CCK1R [2] = target: T3, CCK1R (Homo sapiens, UniProt P32238); assay: Receptor internalization assay with alexa488-CCK; parameters: expressed in transfected cells; host or cells: HEK-293; conditions: hits at 10 µM; cell surface receptor labelled with alexa488-CCK
T3 sequence (P32238 1-428): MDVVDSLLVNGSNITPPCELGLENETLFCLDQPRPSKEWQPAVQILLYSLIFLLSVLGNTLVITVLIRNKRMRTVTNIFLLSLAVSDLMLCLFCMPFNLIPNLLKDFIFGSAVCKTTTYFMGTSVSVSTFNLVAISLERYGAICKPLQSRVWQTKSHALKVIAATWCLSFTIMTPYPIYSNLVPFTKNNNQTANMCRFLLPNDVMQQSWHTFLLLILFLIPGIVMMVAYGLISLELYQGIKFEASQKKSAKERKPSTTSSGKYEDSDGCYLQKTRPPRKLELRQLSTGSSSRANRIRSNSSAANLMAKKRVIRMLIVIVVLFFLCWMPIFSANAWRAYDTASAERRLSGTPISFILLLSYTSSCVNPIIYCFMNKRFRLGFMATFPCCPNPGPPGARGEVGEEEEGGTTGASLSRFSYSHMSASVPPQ
Method: Receptor internalization assays were performed with the fluorescent alexa488-CCK ligand used to visualize cell surface receptors after treatment and fixation with 2% paraformaldehyde (Electron Microscopy Sciences, Cat# 15710), as we described. Images were acquired with a Zeiss Axiovert 200M inverted epifluorescence microscope.

CCK1R [3] = target: T3, CCK1R; assay: CCK1R cAMP accumulation assay, PAM format, HEK-293 CCK1R cells; parameters: expressed in transfected cells; host or cells: HEK-293; conditions: for EC50: EC20 concentration of CCK; for Emax: HEK293, EC20 concentration of CCK
Method: Possible off-target biological effects. […] Here, we tested them at the vasopressin-2 receptor (AVP2R), representing a class A GPCR structurally related to CCK1R, which is coupled to Gs. The activity at AVP2R was tested using AVP2R-overexpressing CHO-K1 (PAM format) or HEK-293 (agonist format) cells, stimulating the cells with vasopressin. Original hits were tested in both agonist and PAM formats. Since all recognized compound responses were present in both formats, we continued to screen analogs in only the PAM format (also able to capture agonist effects) in CHO-K1 AVP2R cells for potential enhanced sensitivity. The dose–response data sets for original hits were combined, as the PAM and agonist effects were indistinguishable. In brief, arginine vasopressin (AVP) orthosteric stimulator dilutions and ligand and compound dose–response titrations in DMSO were transferred onto a 1536-well plate (Corning #3725) using an Echo liquid handler (Labcyte). Thawed cryopreserved cell stocks were diluted in stimulation buffer consisting of HBSS (Hank’s Balanced Salt Solution with Ca^2+ and Mg^2+, Gibco #24020117), 5 mM HEPES (hydroxyethyl piperazineethanesulfonic acid), 0.5 mM IBMX (3-isobutyl-1-methylxanthine, Sigma-Aldrich), and 0.075% BSA (7.5% DTPA-purified bovine serum albumin, PerkinElmer). The resulting cell suspension was added to the microplate and incubated with test compounds at room temperature for 30 min. Then, the detection reagents from the Cisbio cAMP Gs Dynamic HTRF detection kit were added. The plate was kept at room temperature for 30 min and read on a PHERAstar FSX microplate reader. Dose–response curves were performed as 16-point 2-fold dilutions in duplicate in at least two independent experiments.
For CCK1R-induced Gs signaling studies, we performed cAMP accumulation assays as described above and as previously reported, utilizing the HEK-293 cells overexpressing CCK1Rs and the EC20 concentration of CCK for screening in PAM format.

[4] = CHO-K1 AVP2R cells, PAM format with vasopressin, original hits: agonist and PAM data combined, average ± SD

SMILES	Effect on CCK action at CCK2R (intracellular calcium) (CCK2R)	Emax ([1]; CHO-K1, CHO-K1 AVP2R cells, PAM format with vasopressin, original hits: agonist and PAM data combined, average ± SD) [%]	AVP2R PAM (cAMP) Score (activity score = normalized Emax × pEC50) ([1]; CHO-K1 AVP2R cells)	AVP2R PAM (cAMP) Emax [1, 4] [%]	EC50 [1, 4] [µM]	CCK1R internalization (CCK1R [2])	EC50 (CCK1R [3]) [µM]	Emax (CCK1R [3]) [%]	Emax [1, 4] [%]
CCN(CC)CCNc1ncnc2c1sc1nc(N3CCOCC3)c3c(c12)CCCC3 [CMP-1]	no effect on CCK2R	21	1.0 and 1.02	20.7 ± 9.8	12 ± 7.1	neither “hit” cleared the receptor from the cell surface	14.7 ± 7.3	48 ± 31	
CCCc1nc2oc3c(NCCCN(C)C)ncnc3c2c2c1CCCC2 [CMP-28]	no effect on CCK2R		3.53		15 ± 13.6	neither “hit” cleared the receptor from the cell surface	15.6 ± 12.4	56 ± 26	73 ± 16
